Reference: ChEMBL document CHEMBL5505956, “Plant-derived strategies to fight against severe acute respiratory syndrome coronavirus 2” (Eur J Med Chem, 2024)
In brackets after ≈: the same amount, converted by molar mass.

Assays:
SARS-CoV-2 [1] = experiment: Antiviral activity against SARS-CoV-2 infected in human Calu-3 cells assessed as reduction in viral replication incubated for 48 hrs by RT-PCR; assay type: functional, organism-based; conditions: Severe acute respiratory syndrome coronavirus 2, Calu-3, 48 h
SARS-CoV-2 [2] = experiment: Antiviral activity against SARS-CoV-2 infected in african green monkey Vero E6 cells assessed as reduction in viral growth measured for 2 days by qRT-PCR; assay type: functional, organism-based; conditions: Severe acute respiratory syndrome coronavirus 2, Vero C1008, 48 h
SARS-CoV-2 [3] = experiment: Antiviral activity against SARS-CoV-2 infected in African green monkey Vero E6 cells assessed as inhibition of viral growth incubated for 24 hrs by qRT-PCR analysis; assay type: functional, organism-based; conditions: Severe acute respiratory syndrome coronavirus 2, Vero C1008, 24 h
SARS-CoV-2 [4] = experiment: Antiviral activity against SARS-CoV-2 infected in human A549-ACE2 cells assessed as viral growth inhibition; assay type: functional, organism-based; conditions: Severe acute respiratory syndrome coronavirus 2, A549-ACE2
SARS-CoV-2 [5] = experiment: Antiviral activity against SARS-CoV-2 infected in african green monkey Vero E6 cells assessed as reduction in viral replication; assay type: functional, organism-based; conditions: Severe acute respiratory syndrome coronavirus 2, Vero C1008
[6] = biological target: Replicase polyprotein 1ab (Severe acute respiratory syndrome coronavirus 2, UniProt P0DTD1)
Description: Inhibition of SARS CoV-2 main protease

SARS-CoV-2 [7] = experiment: Antiviral activity against SARS-CoV-2 infected in monkey Vero E6 cells assessed as inhibition of […]; assay type: functional, organism-based; conditions: Severe acute respiratory syndrome coronavirus 2, Vero C1008
SARS-CoV-2 [8] = experiment: Antiviral activity against SARS-CoV-2 infected in African green monkey Vero E6 cells assessed as reduction in viral replication measured after 3 days by qRT-PCR analysis; assay type: functional, organism-based; conditions: Severe acute respiratory syndrome coronavirus 2, Vero C1008, 72 h

## COc1cc(/C=C/C(=O)CC(=O)/C=C/c2ccc(O)c(OC)c2)ccc1O [CURCUMIN]
SARS-CoV-2 [1]
  EC50: 38 µM
SARS-CoV-2 [2]
  EC50: 38 µM

## C[C@@H]1CC[C@H]2[C@@H](C)C(=O)O[C@@H]3O[C@@]4(C)CC[C@@H]1[C@]32OO4 [ARTEMISININ]
SARS-CoV-2 [3]
  EC50: 10.3 µM

## CC1(C)[C@@H](O[C@H]2O[C@H](C(=O)O)[C@@H](O)[C@H](O)[C@H]2O[C@@H]2O[C@H](C(=O)O)[C@@H](O)[C@H](O)[C@H]2O)CC[C@]2(C)[C@H]3C(=O)C=C4[C@@H]5C[C@@](C)(C(=O)O)CC[C@]5(C)CC[C@@]4(C)[C@]3(C)CC[C@@H]12 [GLYCYRRHIZIN]
SARS-CoV-2 [4]
  EC50: 0.44 µg/mL (≈ 0.535 µM)

## Cc1ccc(C(=O)Nc2ccc(S(=O)(=O)O)c3cc(S(=O)(=O)O)cc(S(=O)(=O)O)c23)cc1NC(=O)c1cccc(NC(=O)Nc2cccc(C(=O)Nc3cc(C(=O)Nc4ccc(S(=O)(=O)O)c5cc(S(=O)(=O)O)cc(S(=O)(=O)O)c45)ccc3C)c2)c1 [SURAMIN]
SARS-CoV-2 [5]
  EC50: 2930 nM

## COc1ccc2cc1Oc1ccc(cc1)C[C@H]1c3c(cc4c(c3Oc3cc5c(cc3OC)CCN(C)[C@@H]5C2)OCO4)CCN1C [CEPHARANTHINE]
[6]
  IC50: 100 nM

## O=c1c(O)c(-c2cc(O)c(O)c(O)c2)oc2cc(O)cc(O)c12 [MYRICETIN]
SARS-CoV-2 [7]
  EC50: 8 µM

## O=C(O[C@@H]1Cc2c(O)cc(O)cc2O[C@@H]1c1cc(O)c(O)c(O)c1)c1cc(O)c(O)c(O)c1 [EPIGALOCATECHIN GALLATE]
SARS-CoV-2 [8]
  EC50: 10 µM

## O=C(O[C@@H]1O[C@@H]2COC(=O)c3cc(O)c(O)c(O)c3-c3c(cc(O)c(O)c3O)C(=O)O[C@H]([C@H]1O)[C@@H]2O)c1cc(O)c(O)c(O)c1 [CORILAGIN]
SARS-CoV-2 [5]
  EC50: 130 nM
